Measurements as given in patent US20140303092A1 (CHIMERIX, INC., priority 2011, published 2014).

Assay: Study HDP-CDV-201: safety and tolerability (adverse events, laboratory abnormalities, discontinuations)
Assay type: in vivo, human (adult allogeneic HSCT recipients)
Method: Clinical Studies of HDP-CDV were performed and described in detail in the following Examples. For example, HDP-CDV-201 is a placebo-controlled, dose-escalating trial in HSCT CMV (R+) recipients, evaluating the ability of HDP-CDV to prevent or control CMV infection was carried out. Five cohorts were established in which participants or subjects received either placebo or the HDP-CDV orally, in doses ranging from 40 mg weekly (QW) to 200 mg twice weekly (BIW). Subjects who were post-HSCT were enrolled at the time of engraftment and randomized to HDP-CDV or placebo (3 to 1 ratio) and received blinded therapy until approximately 100 day post-transplantation. HDP-CDV doses were 40 mg QW, 100 mg QW, 200 mg QW, 200 mg BIW and 100 mg BIW. Escalation to the next dose was decided by the data monitoring committee after review of the safety data from the previous Cohort. Subjects who developed CMV disease or CMV infection requiring pre-emptive therapy with local standard of care were discontinued from blinded therapy and followed for 4 weeks. Subjects who completed treatment with blinded therapy were followed for 8 weeks post-therapy.
Data from Study HDP-CDV-201 also provided characterization of the safety and tolerability profile of HDP-CDV when administered for the prevention or control of CMV infection in high risk (R^+) post-HSCT adult subjects.
The Safety population (SAFETY) included all randomized subjects who took at least one dose of study treatment. This population was used to summarize safety outcomes based on the treatment actually received, in cases where a subject was treated contrary to the randomization schedule.
The safety and tolerability profile of HDP-CDV, including subject demographics and Baseline characteristics; the AE profile; and laboratory abnormalities of interest were analyzed in the cohorts followed in this investigation.
Subjects completing the treatment period received a full course of study medication; those completing the entire study attended visits through 8 weeks of follow up. Subjects who discontinued treatment may have done so for protocol specified reasons (e.g. development of clinically significant CMV infection requiring preemptive treatment with excluded anti-CMV medications) or for other reasons (e.g., withdrawal, adverse events, loss to follow-up). The disposition of subjects in Study HDP-CDV-201 during the double-blind, placebo-controlled treatment period (through Week 11) is listed by dosing Cohort in TABLE 23.
Adverse events were examined by severity to ensure that all safety signals were identified in this study population. Because of the frequency of events in HSCT recipients, particular attention was given to evaluation of Grade 3 […], 4 (severe), and 5 (fatal) adverse events.
Only those preferred terms for which at least one Grade 3 or higher event was experienced in any treatment group are listed. Cytomegalovirus-related AEs are excluded from this analysis.
HDP-CDV is a lipid conjugate of CDV. Because CDV is known to have adverse effects on renal function and bone marrow, decreased GFR and persistent neutropenia were identified as AEs of special interest. Key renal and hematological (TABLE 30) laboratory parameters were measured and listed below by Study HDP-CDV-201 treatment groups. TABLE 30 includes abnormal levels of serum creatinine, neutrophils, platelets, WBCs, and hemoglobin and includes data at Screening and during the treatment period.
A common metric for unit based dosing of medications is by weight (mg/kg). When the distribution of weights was examined for all subjects participating in the study, the median was 78 kg and the lower 25th percentile weight was approximately 65 kg, which translates to a cut-off of ˜3 mg/kg for a 200 mg total weekly dose. Based upon this approach, a cut-off of 3 mg/kg was used to assess the frequency of diarrhea and associated GI AEs reported for the subjects in Cohorts 3 or 4a (TABLE 40).

[1] = Cohort 4, 200 mg BIW, through Week 11

CCCCCCCCCCCCCCCCOCCCOP(=O)(O)COC(CO)Cn1ccc(N)nc1=O (stereo not shown) [HDP-CDV]
Dyspepsia leading to study drug withdrawal (Cohort 4, 200 mg BIW, N = 30): 0%
Nausea leading to study drug withdrawal (Cohort 4, 200 mg BIW, N = 30): 1 (3.3%)
TEAE ALT increased (Cohort 4, 200 mg BIW, N = 30): 10 (33.3%) n (%)
TEAE AST increased (Cohort 4, 200 mg BIW, N = 30): 7 (23.3%) n (%)
TEAE Abdominal pain (Cohort 4, 200 mg BIW, N = 30): 11 (36.7%) n (%)
TEAE Abdominal pain, Upper (Cohort 4, 200 mg BIW, N = 30): 3 (10.0%) n (%)
TEAE Acute GVHD (Cohort 4, 200 mg BIW, N = 30): 24 (80.0%) n (%)
TEAE Acute Myeloid Leukemia recurrent (Cohort 4, 200 mg BIW, N = 30): 0 n (%)
TEAE Acute Renal Failure (Cohort 4, 200 mg BIW, N = 30): 3 (10.0%) n (%)
TEAE Anxiety (Cohort 4, 200 mg BIW, N = 30): 2 (6.7%) n (%)
TEAE Arthralgias (Cohort 4, 200 mg BIW, N = 30): 1 (3.3%) n (%)
TEAE Back Pain (Cohort 4, 200 mg BIW, N = 30): 3 (10.0%) n (%)
TEAE Blood lactate dehydrogenase increased (Cohort 4, 200 mg BIW, N = 30): 3 (10.0%) n (%)
TEAE Creatinine increased (Cohort 4, 200 mg BIW, N = 30): 2 (6.7%) n (%)
TEAE Cytomegalovirus viremia (Cohort 4, 200 mg BIW, N = 30): 5 (16.7%) n (%)
TEAE Decreased appetite (Cohort 4, 200 mg BIW, N = 30): 5 (16.7%) n (%)
TEAE Diarrhoea (Cohort 4, 200 mg BIW, N = 30): 21 (70.0%) n (%)
TEAE Dysgeusia (Cohort 4, 200 mg BIW, N = 30): 3 (10.0%) n (%)
TEAE Fatigue (Cohort 4, 200 mg BIW, N = 30): 0 n (%)
TEAE GI Reflux Disease (Cohort 4, 200 mg BIW, N = 30): 2 (6.7%) n (%)
TEAE Gamma-glutamyltransferase increased (Cohort 4, 200 mg BIW, N = 30): 3 (10.0%) n (%)
TEAE Generalized oedema (Cohort 4, 200 mg BIW, N = 30): 3 (10.0%) n (%)
TEAE Hyperbilirubinaemia (Cohort 4, 200 mg BIW, N = 30): 5 (16.7%) n (%)
TEAE Hyperglycaemia (Cohort 4, 200 mg BIW, N = 30): 8 (26.7%) n (%)
TEAE Hyperkalemia (Cohort 4, 200 mg BIW, N = 30): 3 (10.0%) n (%)
TEAE Hypocalcaemia (Cohort 4, 200 mg BIW, N = 30): 3 (10.0%) n (%)
TEAE Hypokalaemia (Cohort 4, 200 mg BIW, N = 30): 5 (16.7%) n (%)
TEAE Hyponatraemia (Cohort 4, 200 mg BIW, N = 30): 2 (6.7%) n (%)
TEAE Increased leukocytosis (Cohort 4, 200 mg BIW, N = 30): 3 (10.0%) n (%)
TEAE Insomnia (Cohort 4, 200 mg BIW, N = 30): 2 (6.7%) n (%)
TEAE Liver function test abnormal (Cohort 4, 200 mg BIW, N = 30): 3 (10.0%) n (%)
TEAE Malnutrition (Cohort 4, 200 mg BIW, N = 30): 3 (10.0%) n (%)
TEAE Nausea (Cohort 4, 200 mg BIW, N = 30): 11 (36.7%) n (%)
TEAE Neutropenia (Cohort 4, 200 mg BIW, N = 30): 4 (13.3%) n (%)
TEAE Oedema peripheral (Cohort 4, 200 mg BIW, N = 30): 3 (10.0%) n (%)
TEAE Oral Candidiasis (Cohort 4, 200 mg BIW, N = 30): 1 (3.3%) n (%)
TEAE Pneumonia (Cohort 4, 200 mg BIW, N = 30): 1 (3.3%) n (%)
TEAE Pyrexia (Cohort 4, 200 mg BIW, N = 30): 2 (6.7%) n (%)
TEAE Recurrent flatulence (Cohort 4, 200 mg BIW, N = 30): 3 (10.0%) n (%)
TEAE Renal Failure (Cohort 4, 200 mg BIW, N = 30): 0 n (%)
TEAE Staphylococcal Bacteremia (Cohort 4, 200 mg BIW, N = 30): 1 (3.3%) n (%)
TEAE Thrombocytopenia (Cohort 4, 200 mg BIW, N = 30): 5 (16.7%) n (%)
TEAE Tremor (Cohort 4, 200 mg BIW, N = 30): 2 (6.7%) n (%)
TEAE Vomiting (Cohort 4, 200 mg BIW, N = 30): 8 (26.7%) n (%)
Vomiting leading to study drug withdrawal (Cohort 4, 200 mg BIW, N = 30): 0%
All AEs, Grade 5 (deaths) (Cohort 4, 200 mg BIW, N = 30, entire study duration): 4 (13.3%)
Subjects completed treatment [1]: 7 (23.3%) n (%)
Subjects who permanently discontinued treatment [1]: 23 (76.7%) n (%)
Grade of hepatobiliary AE hyperbilirubinemia, subject 4042 (Cohort 4, drug interrupted): 1
Outcome of hepatobiliary AE hyperbilirubinemia, subject 4042 (Cohort 4, drug interrupted): recovered/resolved
Relationship of hepatobiliary AE hyperbilirubinemia, subject 4042 (Cohort 4, drug interrupted): not related
Grade of hepatobiliary AE acute liver injury, subject 4008 (Cohort 4, drug withdrawn): 3
Outcome of hepatobiliary AE acute liver injury, subject 4008 (Cohort 4, drug withdrawn): recovered/resolved
Relationship of hepatobiliary AE acute liver injury, subject 4008 (Cohort 4, drug withdrawn): possibly related
subjects discontinued due to neutropenia (Cohort 4A): 1 subject(s)
